Laboratory results reported in patent publication US9783537B2, “3-(4-ethylnylphenyl) pyridopyrimidinone compounds and process for preparation thereof useful as potential anticancer agents” (Council of Scientific & Industrial Research, priority 2013, dated 2017).
Read-outs that look alike come from different tables or passages of the source.

Columns and labels:
[1] = tested on: A498; assay: SRB 48 h growth assay, Renal A498; format: cell-based, human
[2] = tested on: six CNS cancer cell line (SF-268, SF-295, SF-539, SNB-19, SNB-75 and U251); assay: in vitro anticancer activity, CNS panel; format: cell-based; settings: Homo sapiens; six CNS cancer cell lines, exposure at least 48 h; read-out: GI50, range over panel
[3] = tested on: IGROV1; assay: SRB 48 h growth assay, Ovarian IGROV1; format: cell-based, human
[4] = tested on: HCT-15; assay: SRB 48 h growth assay, Colon HCT-15; format: cell-based, human; settings: HCT-15, Colon
[5] = tested on: SW-620; assay: SRB 48 h growth assay, Colon SW-620; format: cell-based, human; settings: SW-620, Colon
[6] = tested on: MDA-MB-231/ATCC; assay: SRB 48 h growth assay, Breast MDA-MB-231/ATCC; format: cell-based, human
[7] = tested on: SNB-19; assay: SRB 48 h growth assay, CNS SNB-19; format: cell-based, human; settings: SNB-19, CNS
[8] = tested on: UO-31; assay: SRB 48 h growth assay, Renal UO-31; format: cell-based, human; settings: UO-31, Renal
[9] = tested on: two prostate cancer cell line (PC-3, DU-145); assay: in vitro anticancer activity, prostate panel; format: cell-based; settings: Homo sapiens; two prostate cancer cell lines, exposure at least 48 h; read-out: GI50, range over panel
[10] = tested on: SNB-75; assay: SRB 48 h growth assay, CNS SNB-75; format: cell-based, human; settings: SNB-75, CNS
[11] = tested on: NCI-H226; assay: SRB 48 h growth assay, Non-small Cell Lung NCI-H226; format: cell-based, human
[12] = tested on: T-47D; assay: SRB 48 h growth assay, Breast T-47D; format: cell-based, human
[13] = tested on: RXF393; assay: SRB 48 h growth assay, Renal RXF393; format: cell-based, human
[14] = tested on: MALME-3M; assay: SRB 48 h growth assay, Melanoma MALME-3M; format: cell-based, human
[15] = tested on: DU-145; assay: SRB 48 h growth assay, Prostate DU-145; format: cell-based, human; settings: DU-145, Prostate
[16] = tested on: SF-539; assay: SRB 48 h growth assay, CNS SF-539; format: cell-based, human; settings: SF-539, CNS
[17] = tested on: K-562; assay: SRB 48 h growth assay, Leukemia K-562; format: cell-based, human
[18] = tested on: UACC-62; assay: SRB 48 h growth assay, Melanoma UACC-62; format: cell-based, human; settings: UACC-62, Melanoma
[19] = tested on: A549/ATCC; assay: SRB 48 h growth assay, Non-small Cell Lung A549/ATCC; format: cell-based, human
[20] = tested on: OVCAR-8; assay: SRB 48 h growth assay, Ovarian OVCAR-8; format: cell-based, human; settings: OVCAR-8, Ovarian
[21] = tested on: HL-60(TB); assay: SRB 48 h growth assay, Leukemia HL-60(TB); format: cell-based, human
[22] = tested on: MDA-MB-468; assay: SRB 48 h growth assay, Breast MDA-MB-468; format: cell-based, human; settings: MDA-MB-468, Breast
[23] = tested on: M14; assay: SRB 48 h growth assay, Melanoma M14; format: cell-based, human
[24] = tested on: OVCAR-4; assay: SRB 48 h growth assay, Ovarian OVCAR-4; format: cell-based, human; settings: OVCAR-4, Ovarian
[25] = tested on: RPMI-8226; assay: SRB 48 h growth assay, Leukemia RPMI-8226; format: cell-based, human; settings: RPMI-8226, Leukemia
[26] = tested on: SF-268; assay: SRB 48 h growth assay, CNS SF-268; format: cell-based, human; settings: SF-268, CNS
[27] = Homo sapiens, read-out: Growth Inhibition GI50
[28] = Homo sapiens, read-out: Log10 GI50 (converted)
[29] = Homo sapiens, read-out: Log10 LC50 (converted)

C#Cc1ccc(-n2c(/C=C/c3ccc(O)cc3)nc3ncccc3c2=O)cc1 [4b, (E)-3-(4-Ethynylphenyl)-2-(4-hydroxystyryl)pyrido[2,3-d]pyrimidin-4(3H)-one]
Log10 TGI50 [1]: −5.16 | GI50 [1, 27]: 2.48 µM | GI50 [1, 28]: 2.45 µM | CC50 [1, 29]: > 100 µM | GI50 [2]: 3.88 to 16.2 µM | Log10 TGI50 [3]: −4.45 | GI50 ([3]; Homo sapiens, IGROV-1, read-out: Growth Inhibition GI50): 4.69 µM | GI50 ([3]; Homo sapiens, IGROV-1, read-out: Log10 GI50 (converted)): 4.68 µM | CC50 ([3]; Homo sapiens, IGROV-1, read-out: Log10 LC50 (converted)): > 100 µM | Log10 TGI50 [4]: >−4.00 | GI50 [4, 27]: 4.65 µM | GI50 [4, 28]: 4.68 µM | CC50 [4, 29]: > 100 µM | GI50 [5, 27]: 3.55 µM | GI50 [5, 28]: 3.55 µM | CC50 [5, 29]: > 100 µM | Log10 TGI50 [5]: >−4.00 | Log10 TGI50 [6]: >−4.00 | GI50 [6, 27]: 11.4 µM | GI50 [6, 28]: 11.5 µM | CC50 [6, 29]: > 100 µM | GI50 [7, 27]: 6.26 µM | GI50 [7, 28]: 6.31 µM | CC50 [7, 29]: > 100 µM | Log10 TGI50 [7]: >−4.00 | GI50 [8, 27]: 3.79 µM | GI50 [8, 28]: 3.8 µM | CC50 [8, 29]: > 100 µM | Log10 TGI50 [8]: −4.47 | GI50 [9]: 3.96 to 5.36 µM | GI50 [10, 27]: 0.94 µM | GI50 [10, 28]: 0.955 µM | CC50 [10, 29]: > 100 µM | Log10 TGI50 [10]: −4.49 | Log10 TGI50 [11]: −4.88 | GI50 [11, 27]: 2.58 µM | GI50 [11, 28]: 2.57 µM | LC50 [11, 29]: > 100 µM | Log10 TGI50 [12]: >−4.00 | GI50 ([12]; Homo sapiens, T47D, read-out: Growth Inhibition GI50): 4.63 µM | GI50 ([12]; Homo sapiens, T47D, read-out: Log10 GI50 (converted)): 4.68 µM | CC50 ([12]; Homo sapiens, T47D, read-out: Log10 LC50 (converted)): > 100 µM | Log10 TGI50 [13]: −5.36 | GI50 ([13]; Homo sapiens, RXF 393, read-out: Growth Inhibition GI50): 1.48 µM | GI50 ([13]; Homo sapiens, RXF 393, read-out: Log10 GI50 (converted)): 1.48 µM | CC50 ([13]; Homo sapiens, RXF 393, read-out: Log10 LC50 (converted)): > 72.4 µM | Log10 TGI50 [14]: >−4.00 | GI50 [14, 27]: 5.13 µM | GI50 [14, 28]: 5.13 µM | CC50 [14, 29]: > 100 µM | Log10 TGI50 [15]: −4.12 | GI50 [15, 27]: 4.1 µM | GI50 [15, 28]: 4.07 µM | CC50 [15, 29]: > 100 µM | GI50 [16, 27]: 2.12 µM | GI50 [16, 28]: 2.14 µM | CC50 [16, 29]: > 74.1 µM | Log10 TGI50 [16]: −5.21 | GI50 ([17]; Homo sapiens, K562, K-562, Leukemia, read-out: Growth Inhibition GI50): 4.33 µM | GI50 ([17]; Homo sapiens, K562, K-562, Leukemia, read-out: Log10 GI50 (converted)): 4.37 µM | CC50 ([17]; Homo sapiens, K562, K-562, Leukemia, read-out: Log10 LC50 (converted)): > 100 µM | Log10 TGI50 ([17]; K-562, Leukemia): >−4.00 | GI50 [18, 27]: 4.01 µM | GI50 [18, 28]: 3.98 µM | CC50 [18, 29]: > 100 µM | Log10 TGI50 [18]: >−4.00 | Log10 TGI50 [19]: >−4.00 | GI50 [19, 27]: 4.74 µM | GI50 [19, 28]: 4.79 µM | CC50 [19, 29]: > 100 µM | GI50 [20, 27]: 4.39 µM | GI50 [20, 28]: 4.37 µM | CC50 [20, 29]: > 100 µM | Log10 TGI50 [20]: −4.33 | Log10 TGI50 [21]: −4.52 | GI50 [21, 27]: 3.2 µM | GI50 [21, 28]: 3.24 µM | CC50 [21, 29]: > 100 µM | GI50 [22, 27]: 2.31 µM | GI50 [22, 28]: 2.29 µM | CC50 [22, 29]: > 100 µM | Log10 TGI50 [22]: −5.15 | Log10 TGI50 [23]: −5.09 | GI50 [23, 27]: 2.7 µM | GI50 [23, 28]: 2.69 µM | CC50 [23, 29]: > 100 µM | GI50 [24, 27]: 22.8 µM | GI50 [24, 28]: 1.58 µM | CC50 [24, 29]: > 100 µM | Log10 TGI50 [24]: >−4.00 | GI50 [25, 27]: 3.41 µM | GI50 [25, 28]: 3.39 µM | CC50 [25, 29]: > 100 µM | Log10 TGI50 [25]: >−4.00 | GI50 [26, 27]: 5.24 µM | GI50 [26, 28]: 5.25 µM | CC50 [26, 29]: > 100 µM | Log10 TGI50 [26]: −4.17
